Source: ChEMBL document CHEMBL5543172, “Novel Isoalantolactone-Based Derivatives as Potent NLRP3 Inflammasome Inhibitors: Design, Synthesis, and Biological Characterization” (J Med Chem, 2024)

What was measured:
[1] = Metabolic stability in mouse liver microsomes assessed as half life preincubated for 5 mins followed by NADPH addition and measured upto 60 mins by LC-MS/MS analysis; type: ADME, Microsome; conditions: time < 65 min
[2] = Metabolic stability in human liver microsomes assessed as half life preincubated for 5 mins followed by NADPH addition and measured upto 60 mins by LC-MS/MS analysis; type: ADME, Microsome; conditions: time < 65 min
[3] = Cmax in male C57BL/6 mouse at 30 mg/kg, ip measured upto 1440 mins by LC-MS/MS analysis; type: ADME, organism-based; conditions: in vivo
[4] = Drug distribution in C57BL/6 mouse plasma at 30 mg/kg, ip measured after 0.5 hrs by LC-MS/MS analysis; type: ADME, organism-based
[5] = Drug distribution in C57BL/6 mouse colon at 30 mg/kg, ip measured after 0.5 hrs by LC-MS/MS analysis; type: ADME, organism-based; conditions: read-out: Drug uptake
[6] = Drug distribution in C57BL/6 mouse colon at 30 mg/kg, ip measured after 24 hrs by LC-MS/MS analysis; type: ADME, organism-based; conditions: read-out: Drug uptake
[7] = Apparent oral clearance in male C57BL/6 mouse at 30 mg/kg, ip measured upto 1440 mins by LC-MS/MS analysis; type: ADME, organism-based; conditions: in vivo, read-out: CLz/F (converted)
[8] = Drug distribution in C57BL/6 mouse colon at 30 mg/kg, ip measured after 8 hrs by LC-MS/MS analysis; type: ADME, organism-based; conditions: read-out: Drug uptake
[9] = MRT (0 to t) in male C57BL/6 mouse at 30 mg/kg, ip measured upto 1440 mins by LC-MS/MS analysis; type: ADME, organism-based; conditions: in vivo
[10] = Half life in male C57BL/6 mouse at 30 mg/kg, ip measured upto 1440 mins by LC-MS/MS analysis; type: ADME, organism-based; conditions: in vivo
[11] = Tmax in male C57BL/6 mouse at 30 mg/kg, ip measured upto 1440 mins by LC-MS/MS analysis; type: ADME, organism-based; conditions: in vivo
[12] = Drug distribution in C57BL/6 mouse colon at 30 mg/kg, ip measured after 2 hrs by LC-MS/MS analysis; type: ADME, organism-based; conditions: read-out: Drug uptake
[13] = AUC (0 to t) in male C57BL/6 mouse at 30 mg/kg, ip measured upto 1440 mins by LC-MS/MS analysis; type: ADME, organism-based; conditions: in vivo
[14] = Drug distribution in C57BL/6 mouse plasma at 30 mg/kg, ip measured after 2 hrs by LC-MS/MS analysis; type: ADME, organism-based

Compound | half-life [1] | half-life [2] | also measured
C=C1C(=O)O[C@@H]2C[C@@]3(C)CC[C@@H](OC(=O)c4cc(Cl)cnc4Cl)C(=C)[C@@H]3C[C@H]12 | 12.6 min | 95.7 min | –
C=C1C(=O)O[C@@H]2C[C@@]3(C)CCCC(=C)[C@@H]3C[C@H]12 [ISOALANTOLACTONE] | 9.1 min | 4.47 min | Cmax [3]: 159 ng/mL; concentration at 0.5 h [4]: 27.4 ng/mL; concentration at 0.5 h [5]: 3320 ng/g; concentration at 24 h [6]: 26.9 ng/g; CL/F [7]: 2020 mL/min/kg; concentration at 8 h [8]: 3120 ng/g; MRT last at 24 h [9]: 110 min; half-life [10]: 127 min; Tmax [11]: 13.2 min; concentration at 2 h [12]: 293 ng/g; AUC(0-t) at 24 h [13]: 230 ng·h/mL; concentration at 2 h [14]: 7.71 ng/mL
C=C1C(=O)O[C@@H]2C[C@@]3(C)CC[C@@H](OC(=O)/C=C/C(=O)c4ccccc4)C(=C)[C@@H]3C[C@H]12 | 19.2 min | 10.4 min | –
C=C1C(=O)O[C@@H]2C[C@@]3(C)CC[C@@H](OC(=O)/C=C/C(=O)c4ccc(C(F)(F)F)cc4)C(=C)[C@@H]3C[C@H]12 | 27.2 min | 20.6 min | –
C=C1C(=O)O[C@@H]2C[C@@]3(C)CC[C@@H](OC(=O)c4c(Cl)ccnc4Cl)C(=C)[C@@H]3C[C@H]12 | 47.1 min | 118 min | –
C=C1C(=O)O[C@@H]2C[C@@]3(C)CC[C@@H](OC(=O)/C=C/C(=O)c4ccc(F)cc4)C(=C)[C@@H]3C[C@H]12 | 44.1 min | 31.1 min | –
